Laboratory results: article PMC7099627, “Design, synthesis, heme binding and density functional theory studies of isoindoline-dione-4-aminoquinolines as potential antiplasmodials” (Future Medicinal Chemistry, 2019)
Where two headings read alike, the source gives them in different places.

What was measured:
[1] = tested on: chloroquine-resistant W2 strain of Plasmodium falciparum; experiment: Antiplasmodial activity, growth inhibition by flow cytometry; assay type: cell-based
Procedure: The compounds were added from DMSO stocks; the maximum concentration of DMSO used was 0.1%. Controls without inhibitors included 0.1% DMSO. […] Fixed parasites were then transferred to 0.1% Triton X-100 in phosphate-buffered saline containing 1 nM YOYO-1 dye (Molecular Probes, MA, USA). Parasitemia was determined from dot plots (forward scatter vs fluorescence) acquired on a FACSort flow cytometer using Cell Quest software (Beckton Dickinson, NJ, USA). IC50 values for growth inhibition were determined from plots of percent control parasitemia over inhibitor concentration using the Prism 5.0 program (GraphPad Software, CA, USA), with data from duplicate experiments fitted by nonlinear regression.
The synthesized C4/C5substituted-isoindoline-1,3-diones-4-aminoquinolines were screened for their antiplasmodial activity against CQR (W2) strain of P. falciparum (Table 1).

Vero cells = experiment: Cytotoxicity assay (resazurin cell viability); assay type: cell-based; settings: for SI (selectivity index): Vero cytotoxicity vs W2 antiplasmodial IC50
Procedure: (§1) Cell viability was determined using Vero cells (ATCC, Sigma, Munich, Germany), which were grown in RPMI medium (Gibco) supplemented with 10% decomplemented fetal calf serum under 5% CO2 atmosphere.

[2] = Cytotoxicity assay (resazurin cell viability); assay type: cell-based; settings: African green monkey; mammalian Vero cells, 24 h incubation, resazurin
Procedure: as §1

[3] = Heme-binding spectrophotometric titration (HypSpec); settings: 40% aq. DMSO, heme 12 μM
Procedure: The resultant 40% DMSO solutions maintain the hematin solutions in the monomeric state at concentrations used. […] All the working solutions were kept in dark to avoid photo-sensitivity. Diluent solutions were prepared by dissolving 1 mL of 0.02 M HEPES and 4 mL of spectroscopic grade DMSO and made up to a final volume of 10 mL with ultrapure, HPLC grade Hipersolv water.

[4] = chloroquine-resistant W2 strain, 48 h incubation, read-out: IC50
[5] = Plasmodium falciparum, W2, 48 h, chloroquine-resistant W2 strain, 48 h incubation, read-out: IC50
[6] = mammalian Vero cells, 24 h incubation, resazurin, read-out: IC50 (μM cytotoxicity)
[7] = Plasmodium falciparum, W2, chloroquine-resistant W2 strain, Figure 1, read-out: IC50

| SMILES | IC50 [1, 5] [nM] | SI (selectivity index) (Vero cells) | IC50 (Vero cells; [6]) [µM] | IC50 at 24 h [2] [µM] | further results |
| --- | --- | --- | --- | --- | --- |
| O=C1c2cccc(N3CCCCC3)c2C(=O)N1CCNc1ccnc2cc(Cl)ccc12 [4a] |  |  |  |  | IC50 [1, 4]: 158 nM; IC50 (Vero cells): < 28.8 µM |
| O=C1c2cccc(N3CCCCC3)c2C(=O)N1CCCNc1ccnc2cc(Cl)ccc12 [4b] | 162 | 344.4 | 55.8 |  |  |
| O=C1c2cccc(N3CCCCC3)c2C(=O)N1CCCCNc1ccnc2cc(Cl)ccc12 [4c, 2-(4-((7-chloroquinolin-4-yl)amino)butyl)-4-(piperidin-1-yl)isoindoline-1,3-dione] | 50 | 1060.7 | 54.1 |  | IC50 [1, 4]: 51 nM |
| O=C1c2cccc(N3CCCCC3)c2C(=O)N1CCCCCCNc1ccnc2cc(Cl)ccc12 [4d, 2-(6-((7-chloroquinolin-4-yl)amino)hexyl)-4-(piperidin-1-yl)isoindoline-1,3-dione] | 75 | 2720 | 204 |  |  |
| O=C1c2ccc(N3CCCCC3)cc2C(=O)N1CCNc1ccnc2cc(Cl)ccc12 [4e] |  |  |  |  | IC50 [1, 4]: 163 nM; IC50 (Vero cells): < 28.8 µM |
| O=C1c2ccc(N3CCCCC3)cc2C(=O)N1CCCNc1ccnc2cc(Cl)ccc12 [4f, 2-(3-((7-chloroquinolin-4-yl)amino)propyl)-5-(piperidin-1-yl)isoindoline-1,3-dione] | 176 | 317 | 55.8 |  |  |
| O=C1c2ccc(N3CCCCC3)cc2C(=O)N1CCCCNc1ccnc2cc(Cl)ccc12 [4g] | 77 |  |  | < 27 |  |
| O=C1c2ccc(N3CCCCC3)cc2C(=O)N1CCCCCCNc1ccnc2cc(Cl)ccc12 [4h] |  |  |  |  | IC50 [1, 4]: 123 nM; IC50 (Vero cells): < 25.5 µM |
| O=C1c2cccc(N3CCOCC3)c2C(=O)N1CCNc1ccnc2cc(Cl)ccc12 [4i] | 180 |  |  | < 28.6 |  |
| O=C1c2cccc(N3CCOCC3)c2C(=O)N1CCCNc1ccnc2cc(Cl)ccc12 [4j] | 276 | 805 | 222 |  |  |
| O=C1c2cccc(N3CCOCC3)c2C(=O)N1CCCCNc1ccnc2cc(Cl)ccc12 [4k, 2-(4-((7-chloroquinolin-4-yl)amino)butyl)-4-morpholinoisoindoline-1,3-dione] | 71 | 1517 | 108 |  |  |
| O=C1c2cccc(N3CCOCC3)c2C(=O)N1CCCCCCNc1ccnc2cc(Cl)ccc12 [4l] | 25 |  | 50.8 |  |  |
| O=C1c2ccc(N3CCOCC3)cc2C(=O)N1CCNc1ccnc2cc(Cl)ccc12 [4m, 2-(2-((7-chloroquinolin-4-yl)amino)ethyl)-5-morpholinoisoindoline-1,3-dione] | 370 |  |  | < 28.6 |  |
| O=C1c2ccc(N3CCOCC3)cc2C(=O)N1CCCNc1ccnc2cc(Cl)ccc12 [4n] | 118 | 1883 | 222 |  |  |
| O=C1c2ccc(N3CCOCC3)cc2C(=O)N1CCCCNc1ccnc2cc(Cl)ccc12 [4o, 2-(4-((7-chloroquinolin-4-yl)amino)butyl)-5-morpholinoisoindoline-1,3-dione] | 49 |  |  | < 26.9 |  |
| O=C1c2ccc(N3CCOCC3)cc2C(=O)N1CCCCCCNc1ccnc2cc(Cl)ccc12 [4p] | 19 |  |  | < 25.4 |  |
| O=C1c2ccc(N3CCN(CCO)CC3)cc2C(=O)N1CCNc1ccnc2cc(Cl)ccc12 [4q] | 44 |  |  | < 26 |  |
| O=C1c2ccc(N3CCN(CCO)CC3)cc2C(=O)N1CCCNc1ccnc2cc(Cl)ccc12 [4r, 2-(3-((7-chloroquinolin-4-yl)amino)propyl)-5-(4-(2-hydroxyethyl)piperazin-1-yl)isoindoline-1,3-dione] |  |  |  | < 25.3 | IC50 [1, 7]: 6.6 nM; activity relative to CQ (fold higher) ([1]; antiplasmodial activity vs CQ): ~12 fold; IC50 [1, 4]: 6 nM; Monomeric Heme log K ([3]; pH 5.6 (MES buffer)): 5.41; Monomeric Heme log K ([3]; pH 7.4 (HEPES buffer)): 5.14 |
| O=C1c2ccc(N3CCN(CCO)CC3)cc2C(=O)N1CCCCNc1ccnc2cc(Cl)ccc12 [4s, 2-(4-((7-chloroquinolin-4-yl)amino)butyl)-5-(4-(2-hydroxyethyl)piperazin-1-yl)isoindoline-1,3-dione] | 14 |  |  | < 24.6 |  |
| O=C1c2ccc(N3CCN(CCO)CC3)cc2C(=O)N1CCCCCCNc1ccnc2cc(Cl)ccc12 [4t] | 15 |  |  | < 23.3 |  |
| C[C@@H]1CC[C@H]2[C@@H](C)C(=O)O[C@@H]3O[C@@]4(C)CC[C@@H]1[C@]32OO4 [ART, Artemisinin, reference compound] | 5 |  |  |  | IC50 [1, 7]: 5.3 nM |
| CCN(CC)CCCC(C)Nc1ccnc2cc(Cl)ccc12 (stereo not shown) [CQ, Chloroquine, reference compound] |  |  |  |  | IC50 ([1]; Plasmodium falciparum, W2, 48 h): 79 nM |
